# Assay results reported in ChEMBL document CHEMBL4828738, “Design, synthesis and evaluation of novel 5-phenylthiophene derivatives as potent fungicidal of Candida albicans and antifungal reagents of fluconazole-resistant fungi” (Eur J Med Chem, 2021).
# Key:
# Candida albicans [1] = test: Antifungal activity against fluconazole-resistant Candida albicans 901 assessed as fungal growth inhibition by CLSI protocol based method
# Candida albicans [2] = test: Antifungal activity against fluconazole-resistant Candida albicans 103 assessed as fungal growth inhibition by CLSI protocol based method
# Nakaseomyces glabratus = test: Antifungal activity against Candida glabrata assessed as fungal growth inhibition by CLSI protocol based method; format: functional
# Candida albicans [3] = test: Antifungal activity against fluconazole-resistant Candida albicans 311 assessed as fungal growth inhibition by CLSI protocol based method
# Candida albicans [4] = test: Antifungal activity against fluconazole-resistant Candida albicans 632 assessed as fungal growth inhibition by CLSI protocol based method
# Candida tropicalis = test: Antifungal activity against Candida tropicalis CGMCC 2.3739 assessed as fungal growth inhibition by CLSI protocol based method; format: functional
# Candida albicans [5] = test: Antifungal activity against fluconazole-resistant Candida albicans 904 assessed as fungal growth inhibition by CLSI protocol based method
# Candida albicans [6] = test: Antifungal activity against fluconazole-resistant Candida albicans 100 assessed as fungal growth inhibition by CLSI protocol based method
# Candida parapsilosis = test: Antifungal activity against Candida parapsilosis GIM2.190 assessed as fungal growth inhibition by CLSI protocol based method; format: functional; details: Lodderomyces parapsilosis
# Candida albicans [7] = test: Antifungal activity against Candida albicans CPCC400616 assessed as fungal growth inhibition by CLSI protocol based method; format: functional
# Cryptococcus neoformans = test: Antifungal activity against Cryptococcus neoformans CGMCC2.3161 assessed as fungal growth inhibition by CLSI protocol based method; format: functional
# Candida albicans [8] = test: Antifungal activity against Candida albicans ATCC SC5314 assessed as fungal growth inhibition by CLSI protocol based method; format: functional
# Pichia kudriavzevii = test: Antifungal activity against Candida krusei GIM2.1 assessed as fungal growth inhibition by CLSI protocol based method; format: functional
Structure (SMILES),MIC (Candida albicans [1]) [µg/mL],MIC (Candida albicans [2]) [µg/mL],MIC (Nakaseomyces glabratus) [µg/mL],MIC (Candida albicans [3]) [µg/mL],MIC (Candida albicans [4]) [µg/mL],MIC (Candida tropicalis) [µg/mL],MIC (Candida albicans [5]) [µg/mL],MIC (Candida albicans [6]) [µg/mL],MIC (Candida parapsilosis) [µg/mL],MIC (Candida albicans [7]) [µg/mL],MIC (Cryptococcus neoformans) [µg/mL],MIC (Candida albicans [8]) [µg/mL],MIC (Pichia kudriavzevii) [µg/mL]
O=C(NC(Cn1ccnc1)C(=O)c1ccc(F)cc1)c1ccc(-c2ccc(Cl)cc2)s1 (configuration not stated),8,8,1,4,4,2,16,4,> 64,0.25,> 64,0.06,> 64
O=C(NC(Cn1ccnc1)C(=O)c1ccccc1)c1ccc(-c2ccc(F)cc2)s1 (configuration not stated),–,–,> 64,–,–,32,–,–,> 64,32,> 64,1,> 64
O=C(NC(Cn1ccnc1)C(=O)c1ccccc1)c1cc2ccccc2s1 (configuration not stated),–,–,> 64,–,–,> 64,–,–,> 64,> 64,> 64,> 64,> 64
O=C(NC(Cn1ccnc1)C(=O)c1ccccc1)c1cc2ccccc2o1 (configuration not stated),–,–,> 64,–,–,> 64,–,–,> 64,> 64,> 64,> 64,> 64
CCOc1ccc(-c2ccc(C(=O)NC(Cn3ccnc3)C(=O)c3ccccc3)s2)cc1 (configuration not stated),–,–,> 64,–,–,> 64,–,–,> 64,> 64,> 64,> 64,> 64
O=C(NC(Cn1ccnc1)C(=O)c1ccccc1)c1ccc(-c2ccc(OC(F)(F)F)cc2)s1 (configuration not stated),–,–,> 64,–,–,32,–,–,> 64,16,> 64,0.5,> 64
O=C(NC(Cn1ccnc1)C(=O)c1ccccc1)c1ccc(N2CCN(c3ccccc3)CC2)cc1 (configuration not stated),–,–,> 64,–,–,> 64,–,–,> 64,> 64,> 64,> 64,> 64
Cc1ccc(-c2ccc(C(=O)NC(Cn3ccnc3)C(=O)c3ccccc3)s2)cc1 (configuration not stated),–,–,> 64,–,–,2,–,–,8,1,> 64,0.125,> 64
O=C(NC(Cn1ccnc1)C(=O)c1ccccc1)c1ccc(-c2ccc(Cl)cc2)s1 (configuration not stated),4,4,1,2,4,0.125,4,2,0.25,0.125,> 64,0.125,4
O=C(NC(Cn1ccnc1)C(=O)c1ccc(OC(F)(F)F)cc1)c1ccc(-c2ccc(Cl)cc2)s1 (configuration not stated),–,–,> 64,–,–,> 64,–,–,> 64,32,> 64,32,> 64
COc1ccc(C(=O)C(Cn2ccnc2)NC(=O)c2ccc(-c3ccc(Cl)cc3)s2)cc1 (configuration not stated),8,8,4,4,8,0.06,16,4,> 64,0.125,> 64,< 0.03,8
O=C(NC(Cn1ccnc1)C(=O)c1ccccc1)c1noc2c1CCc1ccccc1-2 (configuration not stated),–,–,16,–,–,4,–,–,32,8,16,8,> 64
N#Cc1ccc(-c2ccc(C(=O)NC(Cn3ccnc3)C(=O)c3ccccc3)s2)cc1 (configuration not stated),–,–,> 64,–,–,> 64,–,–,> 64,> 64,> 64,> 64,> 64
O=C(NC(Cn1ccnc1)C(=O)c1cccc(Cl)c1)c1ccc(-c2ccc(Cl)cc2)s1 (configuration not stated),8,4,0.5,4,> 64,1,> 64,2,0.5,0.25,> 64,< 0.03,> 64
